Assay results: a melting point compilation (Tetko et al.; mined from patent text by program, amines drawn as free bases though some values may be those of a salt)

Row | SMILES | melting point
1 | CCCNC(=O)Nc1ccc(-c2cc3[nH]c(=O)[nH]c3nc2C)cc1 | > 300 °C
2 | [N-]=[N+]=N[C@@H]1c2cc(F)ccc2Oc2ccccc2[C@H]1C[C@@H](O)COC(c1ccccc1)(c1ccccc1)c1ccccc1 | 58 to 59 °C
3 | CCC(C)CNC(=O)c1cc(NC)cc(C(=O)NCC(C)CC)c1 (centres undefined) | 160 to 161 °C
4 | COC(=O)C1CCC2(C)C(=CC(=O)C3C2CCC2(C)C(C(=O)OC)CCC32)C1 (centres undefined) | 167 to 169 °C
5 | Cc1ccc(S(=O)(=O)Oc2ccc(S(=O)(=O)c3c(C(C)C)cn4ccccc34)cc2)cc1 | 180 to 183 °C
6 | CC(C)(C)OC(=O)C[C@@H](NC(=O)/C=C/S(=O)(=O)c1ccccc1)C(=O)OC(C)(C)C | 168 to 169 °C
7 | COc1nc2ccccc2cc1NC(=O)N1CCN(c2cccc3ccccc23)CC1 | 158 to 160 °C
8 | CCOC(=O)Cn1cccc1-c1nc(-c2ccc(OC)cc2)c(-c2ccc(OC)cc2)s1 | 132 to 136 °C
9 | NN=CNCC(=O)NC1CCCCC1 | 232 to 234 °C
10 | NC(N)=Nc1nc(-c2nc(N)sc2C=NS(N)(=O)=O)cs1 | > 300 °C
11 | CC(C)c1nc(-c2ccccc2)c(C(C)C)c(-c2ccc(F)cc2)c1CO | 244 to 246 °C
12 | Nc1cccc(-c2cc3ccccc3[nH]2)c1 | 166 °C
13 | CCCc1c(OCCCCCC(=O)NCCSc2ccncc2)ccc(C(C)=O)c1O | 63 to 65 °C
14 | COc1ccc(Nc2cc(NC(C)C)ncn2)cc1 | 180 to 182 °C
15 | Nc1ncc(S(=O)c2cccnc2)s1 (centres undefined) | 178 to 179 °C
16 | CCn1cc(CN(C(=O)C2CCCc3cc(OCc4ccccc4)ccc32)c2ccc(C(C)C)cc2)cn1 (centres undefined) | 122 to 124 °C
17 | CCCCOC(=O)C(O)C1OC(n2cnc3c(N)ncnc32)C(O)C1O (centres undefined) | 167 °C
18 | CCOC(=O)NN=Cc1c[nH]c(C(C)(C)C)n1 | 194 to 197 °C
19 | COC(=O)c1nsc(S)n1 | 126 to 127 °C
20 | CC1CCC(C(C)C)C(OC(=O)[C@H]2C[C@@H]2C(=O)OC2CC(C)CCC2C(C)C)C1 (some centres undefined) | 95 to 96 °C

Row | SMILES | melting point
21 | Cc1[nH]c(-c2ccccc2)c2nc(-c3ccccc3)[nH]c(=O)c12 | 345 to 348 °C
22 | CCOC(=O)CCC(C#N)(c1ccccc1)C(C)C (centres undefined) | 82 to 84 °C
23 | Cc1ccn(-c2ccc(Oc3ccc(F)cc3)cc2)n1 | 80 to 81 °C
24 | COC(=O)C1Cc2c(nc(C)n2-c2ccc(N(C)C)c(C)c2)CN1C(=O)C(c1ccccc1)c1ccccc1 (centres undefined) | 165 °C
25 | COC(=O)C1=CC(C(=O)c2ccc(OCc3ccccc3)c(C)c2O)=CN2CCc3c([nH]c4ccccc34)C12C(=O)OC (centres undefined) | 216 °C
26 | CCOC(=O)CCCCCOC1OC(COC(C)=O)C(OC(C)=O)C(OC(C)=O)C1NC(C)=O (centres undefined) | 101 to 102 °C
27 | CCCCC[C@H]1CC[C@H](c2ccc(Br)nn2)CC1 | 101 to 103 °C
28 | O=C(CCCN1CCN(c2ccc(F)cc2)CC1)NC1c2ccccc2C=Cc2ccccc21 | 233 to 235 °C
29 | COCn1cncc1C[C@H](NC(=O)C(Cc1cccc2ccccc12)Cc1cccc2ccccc12)C(=O)OC | 182 to 185 °C
30 | CS(=O)(=O)c1ccc(-c2cc(-c3c(-c4ccccn4)nc4ccccn34)ccn2)cc1 | 242 to 244 °C
31 | CCCCNc1c(C(=O)OCC)cnc2onc(C)c12 | 60 °C
32 | OC1CSC(Oc2ccc(-c3cncnc3)nc2Cl)C(O)C1O (centres undefined) | 100 °C
33 | Fc1ccc(Cn2c(NC3CCN(CCOc4nc5cccnc5s4)CC3)nc3ccccc32)cc1 | 151 °C
34 | COC1=C(OC)C(=O)C2=C(CCC(CCOc3cccnc3)CC2)C1=O | 80 to 82 °C
35 | O=C(Nc1cc(OCCCO/N=C/c2cc(C(F)(F)F)cc(C(F)(F)F)c2)ccc1C(=O)O)c1ccc(OC(F)(F)F)cc1 | 184 to 186 °C
36 | O=c1ccn(-c2cccc3c2OC(F)(F)O3)nc1-c1ccnn1-c1ccccc1 | 105 to 107 °C
37 | CC[C@H](C)[C@H](NC(=O)N(C)Cc1ccccn1)C(=O)N[C@@H](Cc1ccccc1)C[C@H](O)[C@H](Cc1ccccc1)NC(=O)OCc1cncs1 | 64 to 67 °C
38 | CN1Cc2c(-c3noc(CNCc4ccccc4)n3)ncn2-c2ccccc2C1=O | 88 to 92 °C
39 | CCCCNS(=O)(=O)CC(O)C(O)C(CC1CCCCC1)NC(=O)C(Cc1c[nH]cn1)NS(=O)(=O)CCc1ccccc1 (centres undefined) | 208 to 210 °C
40 | CCN1CCCC1CNC(=O)c1cc(NS(=O)(=O)NC(C)(C)C)c(C)cc1OC (centres undefined) | 167 to 168 °C

Row | SMILES | melting point
41 | CCOc1c(-c2ccc3cc(NS(C)(=O)=O)ccc3c2)cc(-n2ccc(=O)[nH]c2=O)cc1C(C)(C)C | 196 to 202 °C
42 | CC1C(=O)N(CC(N)=O)C(C)(C)N1C(=O)CN (centres undefined) | 118 °C
43 | COC(=O)CN1CCCC(Nc2ncc3ncnc(Nc4cccc(Br)c4)c3n2)C1 (centres undefined) | 113 °C
44 | CCOC(=O)N1CCCCN1C(=S)Cl | 160 to 162 °C
45 | CC1CN(Cc2ccccc2)c2c3c(nc4cccc(c24)O1)CCCC3 (centres undefined) | 152 to 153 °C
46 | O=C1C(=Cc2ccccc2)CCc2cc(OCCc3c[nH]cn3)ccc21 | 53 to 56 °C
47 | Cc1ccc(Cn2nc(C(=O)NC3C(C)CCCC3C)cc2-c2ccc(Cl)c(Cl)c2)cc1Cl (centres undefined) | 59.9 °C
48 | CC(C)NCC(O)COc1ccc(NC(=O)N(C)C)cc1 (centres undefined) | 138 to 139 °C
49 | CCC1=NN=C(CC)NN1 | 118 to 120 °C
50 | Cc1ccc(S(=O)(=O)OCC2Cc3cccc(-c4ccc(C(F)(F)F)cc4)c3O2)cc1 (centres undefined) | 116 to 118 °C
51 | O=C(c1cccs1)c1cnn2c(-c3cccc(-c4nnn(CCN5CCCC5)n4)c3)ccnc12 | 98 °C
52 | COC(=O)C1=C(C)NC(C)=C(C(=O)OCCCCCCCCCCO)[C@H]1c1cccc2nonc12 | 120 °C
53 | COc1ccc(C2=C(c3ccc(S(C)(=O)=O)cc3)CCC2)cc1 | 129 to 130 °C
54 | CCOC(=O)C(=C(NC)NCc1ccc(Cl)nc1)[N+](=O)[O-] | 231 to 233 °C
55 | CNC(=O)NCCSCc1csc(CN(C)C)n1 | 56 to 59 °C
56 | CC(C)=NN=c1scc(C)n1C | 139 to 140 °C
57 | O=C(NC1CCC(CNc2nc3c(s2)CCOc2ccccc2-3)CC1)OCc1ccccc1 (centres undefined) | 124 to 127 °C
58 | O=C1N(Cc2ccc(C(F)(F)F)o2)c2cc3c(cc2C12COc1cc4c(cc12)OCCO4)OCCO3 (centres undefined) | 176 to 178 °C
59 | O=c1cc(C(F)(F)F)cnn1-c1cc(Oc2ncccn2)c(Cl)cc1F | 156 to 160 °C
60 | CCCCCCCCS(=O)c1ccc(CC(N)(CO)CO)cc1 (centres undefined) | 80 to 82 °C

More lines, now with the values ahead:

Row | melting point | SMILES
61 | 120 to 125 °C | Cc1onc(-c2ccccc2)c1-c1nc(-c2c(F)cccc2Cl)nn1C
62 | 239 to 240 °C | CC(=O)c1nc(-c2ccc(Cl)nc2)[nH]c1C
63 | 215 to 217 °C | COc1ccc(-c2cc(C)cn2-c2ccc(S(=O)(=O)NC(C)=O)cc2)cc1
64 | 91 to 92 °C | O=C(O)CS(=O)CCCCCNS(=O)(=O)c1ccc(Cl)cc1 (centres undefined)
65 | 207 °C | CC(=O)Nc1ccc(Sc2c(N)cc(C(=O)O)cc2S(N)(=O)=O)cc1
66 | 144 to 149 °C | O=C(O)CCCc1cc2cc(C(F)(F)F)ccc2n1S(=O)(=O)c1ccc2c(c1)CCO2
67 | 156 °C | COc1ccc(Nc2nc(Cl)nc(NCC3CCCCC3)n2)cc1F
68 | 231 to 232 °C | CCn1nc2c(N)nc3ccccc3c2c1CC1(O)CCN(C(C)=O)CC1
69 | > 310 °C | O=S1(=O)N=C(Nc2ccccn2)Nc2ccc(Cl)cc21
70 | 155 to 156 °C | O=C(O)c1coc(Cc2ccccc2)n1
71 | 125 to 138 °C | COc1ccc([N+](=O)[O-])c2nccc(Cl)c12
72 | 69 to 73 °C | CCN1CCN(CC)c2cc(Nc3nc(Cl)ncc3Cl)ccc2C1
73 | 244 to 247 °C | O=C1Nc2ccc(Cl)c(Cl)c2C1c1ccccc1F (centres undefined)
74 | 189 to 190 °C | Cc1c(Cl)ccc2c3c([nH]c12)[C@@]1(CC(=O)O)CC[C@H]1CC3 (relative stereo)
75 | 129 to 131 °C | CC(C)(C)c1nc(C(=O)c2ccccc2)nc(C(C)(C)C)c1O
76 | 203 to 204 °C | CC(=O)Nc1nc(CCN2CCC(c3c[nH]c4ccccc34)CC2)cs1
77 | 228 to 229 °C | CC(=O)N1CCC(n2cnc3ccc(-c4nnc(C)o4)cc32)CC1
78 | 162 °C | CCOC(=O)C(=O)Nc1cccc(NC(=O)C(=O)OCC)c1Cl
79 | 99.7 to 105 °C | CNC(=O)N(Cc1ccc(C)c(C)c1)NC(=O)OC(C)(C)C
80 | 225 to 227 °C | Cc1cccnc1-c1cc2cccnc2c(=O)[nH]1

Row | melting point | SMILES
81 | 80 to 81 °C | COc1cc(-n2nnn(C)c2=O)c(Cl)cc1Cl
82 | 122 to 123 °C | CC(C)N1C(=O)c2ccc(Cl)nc2C1=O
83 | 144 °C | CC(=O)Nc1ccc(-c2cc(C(=O)c3cccnc3)sc2N2CCOCC2)cc1
84 | 161 to 162 °C | CCc1cccc(C)c1COc1cc(C(=O)N(C)C)cc2c1nc(C)n2C
85 | 89 to 91 °C | CN[C@@H]1CN(C(=O)c2nn(C)c3ccccc23)C[C@@H]1C (relative stereo)
86 | 215 to 219 °C | Cc1cc(C)nc(S(=O)(=O)Nc2c(C)cccc2Cl)n1
87 | 59 to 62 °C | COc1c(Cl)cc(F)cc1C=O
88 | 124 °C | COC(=O)c1ccc(Sc2ccccc2)cc1Sc1ccccc1
89 | 172 to 174 °C | Cc1ccc2c(-c3ccc(F)cc3)nc(=O)n(C(C)C)c2c1
90 | 203 to 204 °C | O=C(O)Cc1ccc2c(c1)CCc1cccnc1O2
91 | 151 to 153 °C | CN1CCC(c2n[nH]c3ccc(NC(=O)c4ccc(F)cc4)cc23)CC1
92 | 112 to 113 °C | Cc1nnc(-c2ccc3occ(-c4ccccc4F)c3c2)o1
93 | 136 to 137 °C | CCS(=O)CCNC(=O)C1=C(C(=O)Nc2ccc(Cl)cc2F)CCCC1 (centres undefined)
94 | 91 to 92 °C | COc1ccc(C(OC(C)=O)c2sccc2C=O)cc1OC (centres undefined)
95 | 280 to 283 °C | CCCc1c(Oc2ccc(C(=O)O)cc2C(=O)O)ccc(C(C)=O)c1O
96 | 44 to 47 °C | Cc1ccc(F)c([Si](C)(C)C)c1C(=O)N(C)C(C)(C)C
97 | > 250 °C | CCn1cc(-c2nc(C(N)=O)c(N)nc2-c2ccccc2)ccc1=O
98 | 243 to 245 °C | Cn1c(Cl)c(C(=O)O)c2ccc(Cl)cc21
99 | 123 to 125 °C | O=C(O)c1ccc(NCCc2ccccc2)cc1
